Among the data in ChEMBL document CHEMBL3639218, “Bicyclic heterocycle compounds and their uses in therapy” (2015) are IC50 values, retold here.

Test [1] concerns the target E3 ubiquitin-protein ligase XIAP (Homo sapiens, UniProt P98170). Briefly: In vitro Competitive Displacement Binding Assays : Modified SMAC peptides and compounds were tested for their ability to displace the fluorescent tracer from either XIAP, clAP-1 or clAP-2. BIR3 domains of clAP-1 , clAP-2 and XIAP were incubated with test compounds or SMAC based peptides and their respective peptide probes (Peptide Protein Research) in assay buffer (50mM Hepes pH 7.5, […] Tween-.

For test [2], the target named is Baculoviral IAP repeat-containing protein 2 (Homo sapiens, UniProt Q13490). The test is described as above.

The structures appear in SMILES notation.

Broadly, the IC50 is the concentration needed to halve the response being measured. Consider `CC(C)[C@H]1CN[C@H](C)CN1CC(=O)N1CCc2ccc(Br)cc21`, for which the IC50 in test [1] came to 2400 nM.

As for `C[C@@H]1CN(CC(=O)N2CCc3ccc(Br)cc32)CCN1`, in test [2], the IC50 was found to be 40000 nM.

As for `COC[C@H]1CN[C@H](C)CN1CC(=O)N1CC(C)(C)c2cnc(CCC(C)C)cc21`, the IC50 in test [2] was 16 nM.
